± gives the expanded uncertainty stated by the source.
Conditions: 343.16 K, Liquid, Vibrating tube method

SMILES: CCCCCC(=O)OCC(COC(=O)CCCCC)(COC(=O)CCCCC)COC(=O)CCCCC [pentaerythritol tetrahexanoate]
- mass density (27885 kPa): 976.9 ± 1.2 kg/m3
- mass density (27922 kPa): 976.9 ± 1.2 kg/m3
- mass density (27953 kPa): 976.9 ± 1.2 kg/m3
- mass density (27990 kPa): 976.9 ± 1.2 kg/m3
- mass density (28022 kPa): 977 ± 1.2 kg/m3
- mass density (28053 kPa): 977 ± 1.2 kg/m3
- mass density (28081 kPa): 976.9 ± 1.2 kg/m3
- mass density (28111 kPa): 977 ± 1.2 kg/m3
- mass density (28135 kPa): 977 ± 1.2 kg/m3
- mass density (28160 kPa): 977.1 ± 1.2 kg/m3
- mass density (28189 kPa): 977.2 ± 1.2 kg/m3
- mass density (28213 kPa): 977 ± 1.2 kg/m3
- mass density (28238 kPa): 977.1 ± 1.2 kg/m3
- mass density (28267 kPa): 977 ± 1.2 kg/m3
- mass density (28292 kPa): 977.1 ± 1.2 kg/m3
- mass density (28613 kPa): 977.3 ± 1.2 kg/m3
- mass density (28638 kPa): 977.3 ± 1.2 kg/m3
- mass density (28664 kPa): 977.3 ± 1.2 kg/m3
- mass density (28694 kPa): 977.4 ± 1.2 kg/m3
- mass density (28719 kPa): 977.5 ± 1.2 kg/m3
- mass density (28745 kPa): 977.4 ± 1.2 kg/m3
- mass density (28777 kPa): 977.5 ± 1.2 kg/m3
- mass density (28799 kPa): 977.4 ± 1.2 kg/m3
- mass density (28830 kPa): 977.4 ± 1.2 kg/m3
- mass density (28855 kPa): 977.4 ± 1.2 kg/m3
- mass density (28886 kPa): 977.6 ± 1.2 kg/m3
- mass density (28912 kPa): 977.6 ± 1.2 kg/m3
- mass density (28938 kPa): 977.6 ± 1.2 kg/m3
- mass density (28969 kPa): 977.3 ± 1.2 kg/m3
- mass density (28995 kPa): 977.6 ± 1.2 kg/m3
- mass density (29021 kPa): 977.5 ± 1.2 kg/m3
- mass density (29048 kPa): 977.7 ± 1.2 kg/m3
- mass density (29360 kPa): 977.8 ± 1.2 kg/m3
- mass density (29386 kPa): 977.8 ± 1.2 kg/m3
- mass density (29419 kPa): 977.8 ± 1.2 kg/m3
- mass density (29533 kPa): 977.9 ± 1.2 kg/m3
- mass density (29560 kPa): 977.9 ± 1.2 kg/m3
- mass density (29588 kPa): 978 ± 1.2 kg/m3
- mass density (29620 kPa): 977.8 ± 1.2 kg/m3
- mass density (29648 kPa): 977.9 ± 1.2 kg/m3
- mass density (29680 kPa): 978 ± 1.2 kg/m3
- mass density (29708 kPa): 978 ± 1.2 kg/m3
- mass density (29735 kPa): 978 ± 1.2 kg/m3
- mass density (29824 kPa): 978 ± 1.2 kg/m3
- mass density (30097 kPa): 978.2 ± 1.2 kg/m3
- mass density (30127 kPa): 978.2 ± 1.2 kg/m3
- mass density (30157 kPa): 978.2 ± 1.2 kg/m3
- mass density (30193 kPa): 978.4 ± 1.2 kg/m3
- mass density (30518 kPa): 978.6 ± 1.2 kg/m3
- mass density (30540 kPa): 978.4 ± 1.2 kg/m3
- mass density (30566 kPa): 978.7 ± 1.2 kg/m3
- mass density (30588 kPa): 978.5 ± 1.2 kg/m3
- mass density (30610 kPa): 978.5 ± 1.2 kg/m3
- mass density (30637 kPa): 978.6 ± 1.2 kg/m3
- mass density (30659 kPa): 978.6 ± 1.2 kg/m3
- mass density (30682 kPa): 978.8 ± 1.2 kg/m3
- mass density (30704 kPa): 978.7 ± 1.2 kg/m3
- mass density (30731 kPa): 978.6 ± 1.2 kg/m3
- mass density (30753 kPa): 978.7 ± 1.2 kg/m3
- mass density (30776 kPa): 978.7 ± 1.2 kg/m3
- mass density (30798 kPa): 978.7 ± 1.2 kg/m3
- mass density (30825 kPa): 978.7 ± 1.2 kg/m3
- mass density (30848 kPa): 978.5 ± 1.2 kg/m3
- mass density (30871 kPa): 978.7 ± 1.2 kg/m3
- mass density (30894 kPa): 979 ± 1.2 kg/m3
- mass density (30917 kPa): 978.8 ± 1.2 kg/m3
- mass density (30944 kPa): 978.8 ± 1.2 kg/m3
- mass density (30966 kPa): 978.8 ± 1.2 kg/m3
- mass density (30993 kPa): 978.8 ± 1.2 kg/m3
- mass density (31016 kPa): 978.8 ± 1.2 kg/m3
- mass density (31038 kPa): 978.8 ± 1.2 kg/m3
- mass density (31065 kPa): 978.9 ± 1.2 kg/m3
- mass density (31088 kPa): 978.8 ± 1.2 kg/m3
- mass density (31111 kPa): 978.8 ± 1.2 kg/m3
- mass density (31134 kPa): 978.8 ± 1.2 kg/m3
- mass density (31161 kPa): 978.9 ± 1.2 kg/m3
- mass density (31185 kPa): 979 ± 1.2 kg/m3
- mass density (31208 kPa): 978.9 ± 1.2 kg/m3
- mass density (31236 kPa): 978.9 ± 1.2 kg/m3
- mass density (31259 kPa): 979 ± 1.2 kg/m3
- mass density (31282 kPa): 979 ± 1.2 kg/m3
- mass density (31304 kPa): 979.1 ± 1.2 kg/m3
- mass density (31332 kPa): 979 ± 1.2 kg/m3
- mass density (31355 kPa): 979 ± 1.2 kg/m3
- mass density (31382 kPa): 979.1 ± 1.2 kg/m3
- mass density (31405 kPa): 979 ± 1.2 kg/m3
- mass density (31429 kPa): 979.1 ± 1.2 kg/m3
- mass density (31480 kPa): 979.2 ± 1.2 kg/m3
- mass density (31504 kPa): 979.1 ± 1.2 kg/m3
- mass density (31527 kPa): 979.2 ± 1.2 kg/m3
- mass density (31555 kPa): 979.3 ± 1.2 kg/m3
- mass density (31578 kPa): 979.3 ± 1.2 kg/m3
- mass density (31606 kPa): 979.3 ± 1.2 kg/m3
- mass density (31630 kPa): 979.2 ± 1.2 kg/m3
- mass density (31654 kPa): 979.2 ± 1.2 kg/m3
- mass density (31682 kPa): 979.3 ± 1.2 kg/m3
- mass density (31706 kPa): 979.3 ± 1.2 kg/m3
- mass density (31729 kPa): 979.3 ± 1.2 kg/m3
- mass density (31758 kPa): 979.3 ± 1.2 kg/m3
- mass density (31782 kPa): 979.3 ± 1.2 kg/m3
- mass density (31806 kPa): 979.3 ± 1.2 kg/m3
- mass density (31830 kPa): 979.3 ± 1.2 kg/m3
- mass density (31859 kPa): 979.3 ± 1.2 kg/m3
- mass density (31883 kPa): 979.4 ± 1.2 kg/m3
- mass density (31912 kPa): 979.4 ± 1.2 kg/m3
- mass density (31936 kPa): 979.3 ± 1.2 kg/m3
- mass density (31960 kPa): 979.3 ± 1.2 kg/m3
- mass density (31984 kPa): 979.4 ± 1.2 kg/m3
- mass density (32013 kPa): 979.5 ± 1.2 kg/m3
- mass density (32037 kPa): 979.6 ± 1.2 kg/m3
- mass density (32061 kPa): 979.4 ± 1.2 kg/m3
- mass density (32090 kPa): 979.4 ± 1.2 kg/m3
- mass density (32114 kPa): 979.5 ± 1.2 kg/m3
- mass density (32144 kPa): 979.6 ± 1.2 kg/m3
- mass density (32169 kPa): 979.6 ± 1.2 kg/m3
- mass density (32193 kPa): 979.4 ± 2 kg/m3
- mass density (32217 kPa): 979.6 ± 1.2 kg/m3
- mass density (32247 kPa): 979.8 ± 1.2 kg/m3
- mass density (32272 kPa): 979.6 ± 1.2 kg/m3
- mass density (32296 kPa): 979.7 ± 1.2 kg/m3
- mass density (32326 kPa): 979.6 ± 1.2 kg/m3
- mass density (32351 kPa): 979.7 ± 1.2 kg/m3
- mass density (32381 kPa): 979.7 ± 1.2 kg/m3
- mass density (32406 kPa): 979.6 ± 1.2 kg/m3
- mass density (32431 kPa): 979.6 ± 1.2 kg/m3
- mass density (32456 kPa): 979.8 ± 1.2 kg/m3
- mass density (32486 kPa): 979.8 ± 1.2 kg/m3
- mass density (32511 kPa): 979.7 ± 1.2 kg/m3
- mass density (32536 kPa): 979.7 ± 1.2 kg/m3
- mass density (32562 kPa): 979.8 ± 1.2 kg/m3
- mass density (32592 kPa): 979.9 ± 1.2 kg/m3
- mass density (32617 kPa): 979.8 ± 1.2 kg/m3
- mass density (32647 kPa): 979.9 ± 1.2 kg/m3
- mass density (32672 kPa): 979.8 ± 1.2 kg/m3
- mass density (32698 kPa): 979.8 ± 1.2 kg/m3
- mass density (32724 kPa): 980 ± 1.2 kg/m3
- mass density (32755 kPa): 979.9 ± 1.2 kg/m3
- mass density (32780 kPa): 980 ± 1.2 kg/m3
- mass density (32806 kPa): 979.9 ± 1.2 kg/m3
- mass density (32837 kPa): 979.9 ± 1.2 kg/m3
- mass density (32863 kPa): 980 ± 1.2 kg/m3
- mass density (32889 kPa): 980 ± 1.2 kg/m3
- mass density (32920 kPa): 979.8 ± 1.2 kg/m3
- mass density (32945 kPa): 980 ± 1.2 kg/m3
- mass density (32971 kPa): 980 ± 1.2 kg/m3

Source: the NIST ThermoML archive (doi:10.1021/je060271a)
